These results are taken from patent publication US20240270821A1, “GIP/GLP1/GCG TRI-RECEPTOR AGONISTS AND USES THEREOF” (priority 2023, published 2024).

Broadly, the pEC50 is −log10 of the EC50, conventionally taken in molar units.

pEC50: −log10 of the molar value. Starred links: 1 amine or outer side, 2 acyl side, 3 side chain; linkers in the order of their positions; H or OH if unused. Non-standard residues stand in square brackets, D forms with d. Residues, ends and D or L forms follow the SMILES beside them. Groups on a side chain read outwards from the residue. No end group written: not given here. *: point of attachment. C20 diacid = O=C(O)CCCCCCCCCCCCCCCCCCC(=O)*; C18 diacid = O=C(O)CCCCCCCCCCCCCCCCC(=O)*; αMePhe(2-F) = C[C@](N)(Cc1ccccc1F)C(=O)O; γGlu = O=C(O)[C@H](CCC(=O)[*:2])N[*:1]; αMe4Pal = C[C@](N)(Cc1ccncc1)C(=O)O; αMeY = C[C@](N)(Cc1ccc(O)cc1)C(=O)O; αMeF = C[C@](N)(Cc1ccccc1)C(=O)O; 4Pal = N[C@@H](Cc1ccncc1)C(=O)O; αMeL = CC(C)C[C@](C)(N)C(=O)O; αMeS = C[C@](N)(CO)C(=O)O; Orn = NCCC[C@H](N)C(=O)O; AEEA = NCCOCCOCC(=O)O; Aib = CC(C)(N)C(=O)O

What all share (assay type): cell-based
Assay [1] deals with human GLP1-R (Homo sapiens, UniProt P43220). Briefly: GLP1-R internalization assay in HEK293 cells.
Chain of human GLP1-R (P43220 24-463): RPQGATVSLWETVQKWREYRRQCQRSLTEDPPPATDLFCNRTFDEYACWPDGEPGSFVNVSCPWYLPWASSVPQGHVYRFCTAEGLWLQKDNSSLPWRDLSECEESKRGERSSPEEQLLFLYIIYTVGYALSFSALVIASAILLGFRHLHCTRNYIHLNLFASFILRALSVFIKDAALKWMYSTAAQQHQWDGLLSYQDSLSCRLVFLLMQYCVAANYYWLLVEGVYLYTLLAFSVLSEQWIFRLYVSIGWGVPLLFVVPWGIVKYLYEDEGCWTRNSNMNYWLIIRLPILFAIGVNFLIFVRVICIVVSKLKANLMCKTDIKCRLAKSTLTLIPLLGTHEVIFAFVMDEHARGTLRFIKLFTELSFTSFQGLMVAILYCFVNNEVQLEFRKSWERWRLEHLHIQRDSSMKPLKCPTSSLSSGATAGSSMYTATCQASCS
For assay [2], the target named is T1, hGLP-1R (Homo sapiens, UniProt P43220). As to the kind of experiment: Functional cAMP activity in the presence of 1% HSA. The conditions noted are these: read-out: cAMP Rel EC50, hGLP-1R.
T1 sequence (P43220 24-463): as above
Assay [3] concerns the target T2, hGIPR (Homo sapiens, UniProt P48546).
T2 sequence (P48546 22-466): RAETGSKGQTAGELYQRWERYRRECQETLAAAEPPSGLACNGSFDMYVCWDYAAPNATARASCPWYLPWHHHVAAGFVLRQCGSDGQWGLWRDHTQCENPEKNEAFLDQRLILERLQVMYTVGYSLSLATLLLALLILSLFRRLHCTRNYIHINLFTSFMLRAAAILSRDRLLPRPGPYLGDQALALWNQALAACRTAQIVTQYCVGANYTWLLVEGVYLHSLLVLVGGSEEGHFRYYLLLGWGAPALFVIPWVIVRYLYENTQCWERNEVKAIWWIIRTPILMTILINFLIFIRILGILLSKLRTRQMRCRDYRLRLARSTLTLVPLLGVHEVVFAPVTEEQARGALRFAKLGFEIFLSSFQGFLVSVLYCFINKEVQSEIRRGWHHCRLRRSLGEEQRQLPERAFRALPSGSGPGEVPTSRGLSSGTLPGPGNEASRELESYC
As to the kind of experiment: Functional cAMP activation in the presence of 0.1% casein (no HSA). The conditions noted are these: in the presence of 0.1% casein (no HSA); geometric mean; read-out: Relative cAMP EC50, hGIPR.

The target in assay [4] is T1, hGLP-1R. Described as above. Particulars: in the presence of 0.1% casein (no HSA); geometric mean; read-out: Relative cAMP EC50, hGLP-1R.
Assay [5] has as its target human GcgR (Homo sapiens, UniProt P47871). As to the kind of experiment: Functional cAMP activity in the presence of 1% HSA. The conditions noted are these: read-out: cAMP Rel EC50, hGcgR.
Assay [6] concerns the target hGcgR (Homo sapiens, UniProt P47871). Briefly: Functional cAMP activation in the presence of 0.1% casein (no HSA). Particulars: in the presence of 0.1% casein (no HSA); geometric mean; read-out: Relative cAMP EC50, hGcgR.
Assay [7] has as its target T2, hGIPR. As to the kind of experiment: Functional cAMP activity in the presence of 1% HSA. Particulars: read-out: cAMP Rel EC50, hGIPR.
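Wherever Relative cAMP EC50, hGIPR is given: intracellular cAMP rise after 30 min at 37 °C read by HTRF against a standard curve, scaled between buffer alone (0%) and top control ligand concentration (100%), four-parameter fit.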
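Wherever Relative cAMP EC50, hGLP-1R is given: intracellular cAMP rise after 30 min at 37 °C read by HTRF, normalized between buffer only (0%) and maximal control ligand (100%), four-parameter variable-slope fit.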
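Wherever Relative cAMP EC50, hGcgR is given: intracellular cAMP rise after 30 min at 37 °C, read by HTRF against a cAMP standard curve, scaled from buffer only (0%) to maximal control ligand response (100%).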

Chain of hGcgR (P47871 26-477): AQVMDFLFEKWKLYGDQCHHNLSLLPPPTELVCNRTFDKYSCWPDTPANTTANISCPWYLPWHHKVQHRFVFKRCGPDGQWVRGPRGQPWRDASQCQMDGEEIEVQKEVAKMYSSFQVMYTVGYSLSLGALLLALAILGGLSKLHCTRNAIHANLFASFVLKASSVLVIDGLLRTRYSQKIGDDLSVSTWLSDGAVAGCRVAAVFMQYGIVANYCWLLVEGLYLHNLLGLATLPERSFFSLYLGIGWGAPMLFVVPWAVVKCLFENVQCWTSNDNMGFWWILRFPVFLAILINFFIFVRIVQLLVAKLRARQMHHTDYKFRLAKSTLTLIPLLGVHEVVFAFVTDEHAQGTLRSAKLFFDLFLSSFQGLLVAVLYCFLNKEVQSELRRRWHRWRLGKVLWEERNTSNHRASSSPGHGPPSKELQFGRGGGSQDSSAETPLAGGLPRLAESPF
Chain of human GcgR (P47871 26-477): as above

Take `CC[C@H](C)[C@H](NC(=O)[C@H](Cc1ccccc1)NC(=O)[C@H](C)NC(=O)C(C)(C)NC(=O)[C@H](CCC(N)=O)NC(=O)[C@H](C)NC(=O)[C@H](CCCCNC(=O)COCCOCCNC(=O)CC[C@H](NC(=O)CCCCCCCCCCCCCCCCC(=O)O)C(=O)O)NC(=O)[C@H](CCCCN)NC(=O)[C@H](CC(=O)O)NC(=O)[C@H](CC(C)C)NC(=O)[C@](C)(CC(C)C)NC(=O)[C@H](CCCN)NC(=O)[C@H](CO)NC(=O)[C@H](Cc1ccncc1)NC(=O)[C@H](CC(=O)O)NC(=O)[C@H](CO)NC(=O)[C@@H](NC(=O)[C@H](Cc1ccccc1)NC(=O)[C@@H](NC(=O)CNC(=O)[C@H](CCC(N)=O)NC(=O)C(C)(C)NC(=O)[C@@H](N)Cc1ccc(O)cc1)[C@@H](C)O)[C@@H](C)O)C(=O)N[C@@H](CCC(=O)O)C(=O)N[C@@H](Cc1ccc(O)cc1)C(=O)N[C@@H](CC(C)C)C(=O)N[C@@H](CC(C)C)C(=O)N[C@@H](C)C(=O)NCC(=O)NCC(=O)N1CCC[C@H]1C(=O)N[C@@H](CO)C(=O)N[C@@H](CO)C(=O)NCC(=O)N[C@@H](C)C(=O)N1CCC[C@H]1C(=O)N1CCC[C@H]1C(=O)N1CCC[C@H]1C(=O)N[C@@H](CO)C(=O)NCC(=O)N[C@@H](CCC(=O)O)C(N)=O` [Example 112]: the pEC50 in assay [1] (HEK293 cells expressing SNAP-GLP-1R, read-out: GLP1R Internalization EC50) is 7.52; in assay [2], 6.05; in assay [3], 9.63; in assay [4] it was 8.24; in assay [5] it was 5.74; in assay [6], 7.96. For the same molecule, in assay [1] (normalized to maximum concentration of GLP-1 (100%)), the “Internalization % TOP” value stood at 59.1%.
On to `CC[C@H](C)[C@H](NC(=O)[C@H](Cc1ccccc1)NC(=O)[C@H](C)NC(=O)C(C)(C)NC(=O)[C@H](CCC(N)=O)NC(=O)[C@H](C)NC(=O)[C@H](CCCCNC(=O)COCCOCCNC(=O)CC[C@H](NC(=O)CCCCCCCCCCCCCCCCCCC(=O)O)C(=O)O)NC(=O)[C@H](CCCCN)NC(=O)[C@H](CC(=O)O)NC(=O)[C@H](CC(C)C)NC(=O)[C@](C)(CC(C)C)NC(=O)[C@H](CCCN)NC(=O)[C@H](CO)NC(=O)[C@H](Cc1ccccc1)NC(=O)[C@H](CC(=O)O)NC(=O)[C@H](CO)NC(=O)[C@@H](NC(=O)[C@H](Cc1ccccc1)NC(=O)[C@@H](NC(=O)CNC(=O)[C@H](CCC(N)=O)NC(=O)C(C)(C)NC(=O)[C@@H](N)Cc1ccc(O)cc1)[C@@H](C)O)[C@@H](C)O)C(=O)N[C@@H](CCC(=O)O)C(=O)N[C@@H](Cc1c[nH]c2ccccc12)C(=O)N[C@@H](CC(C)C)C(=O)N[C@@H](CC(C)C)C(=O)N[C@@H](CCC(=O)O)C(=O)NCC(=O)NCC(=O)N1CCC[C@H]1C(=O)N[C@@H](CO)C(=O)N[C@@H](CO)C(=O)NCC(=O)N[C@@H](C)C(=O)N1CCC[C@H]1C(=O)N1CCC[C@H]1C(=O)N1C[C@H](O)C[C@H]1C(=O)N[C@@H](CO)C(=O)NCC(=O)N[C@@H](CCC(=O)O)C(N)=O` [Example 105], for which the pEC50 in assay [7] was 7.14; in assay [2], 6.11; in assay [3], 9.57; in assay [4], 8.54; in assay [5] it was 5.55; in assay [6], 7.90.
As for “H-Y[Aib]QGT[αMePhe(2-F)]TSD[4Pal][αMeS]I[αMeL]LD[Orn]K([γGlu-γGlu-C18 diacid])AQ[αMe4Pal]EFI[dE][αMeY]LVEGGPSSGEPPPSGSE-NH2 [Example 1163]”, the pEC50 in assay [7] was 9.14; in assay [2] it was 7.45; in assay [3], 11.02; in assay [4], 9.35; in assay [5] it was 6.79; in assay [6] it was 8.76.
With “Y[Aib]QGTFTSD[4Pal]SQ[αMeL]LDKK([γGlu-dE-dE-C18 diacid])AQ[αMe4Pal]AFIEYLIE[Aib]GPSSGAPPPSGSE-NH2 [Example 926]”, the pEC50 in assay [7] was 7.87; in assay [2], 6.22; in assay [3], 9.78; in assay [4] it was 8.11; in assay [5] it was 5.86; in assay [6] it was 7.88.
“H-Y[Aib]QGT[αMePhe(2-F)]TSDYSILLDKAAQK([AEEA-γGlu-C20 diacid])[Orn]FIEYLIEGGPSSGEPPPSEG-NH2 [Example 306]”: the pEC50 in assay [7] was 7.02; in assay [2] it was 6.90; in assay [3] it was 9.85; in assay [4], 9.47; in assay [5] it was 5.55; in assay [6], 8.24.
For the molecule “H-Y[Aib]QGTFTSDYSI[αMeL]LD[Orn]QAAK([AEEA-AEEA-γGlu-C20 diacid])QFVEWLLA[Aib]GPSSGEPPPSEG-NH2 [Example 328]”, the pEC50 in assay [7] is 7.04; in assay [2], 6.34; in assay [3] it was 9.26; in assay [4], 8.89; in assay [5], 5.69; in assay [6], 7.99.
With `CC[C@H](C)[C@H](NC(=O)[C@H](CC(C)C)NC(=O)[C@H](Cc1ccc(O)cc1)NC(=O)[C@H](CCC(=O)O)NC(=O)[C@@H](NC(=O)[C@H](Cc1ccccc1)NC(=O)[C@H](C)NC(=O)[C@](C)(Cc1ccncc1)NC(=O)[C@H](CCC(N)=O)NC(=O)[C@H](C)NC(=O)[C@H](CCCCNC(=O)CC[C@H](NC(=O)CC[C@H](NC(=O)CCCCCCCCCCCCCCCCC(=O)O)C(=O)O)C(=O)O)NC(=O)[C@H](CCCCN)NC(=O)[C@H](CC(=O)O)NC(=O)[C@H](CC(C)C)NC(=O)[C@](C)(CC(C)C)NC(=O)[C@H](CCC(N)=O)NC(=O)[C@H](CO)NC(=O)[C@H](Cc1ccncc1)NC(=O)[C@H](CC(=O)O)NC(=O)[C@H](CO)NC(=O)[C@@H](NC(=O)[C@H](Cc1ccccc1)NC(=O)[C@@H](NC(=O)CNC(=O)[C@H](CCC(N)=O)NC(=O)C(C)(C)NC(=O)[C@@H](N)Cc1ccc(O)cc1)[C@@H](C)O)[C@@H](C)O)[C@@H](C)CC)C(=O)N[C@@H](C)C(=O)NCC(=O)NCC(=O)N1CCC[C@H]1C(=O)N[C@@H](CO)C(=O)N[C@@H](CO)C(=O)NCC(=O)N[C@@H](C)C(=O)N1CCC[C@H]1C(=O)N1CCC[C@H]1C(=O)N1CCC[C@H]1C(=O)N[C@@H](CO)C(=O)NCC(=O)N[C@@H](CO)C(N)=O` [Example 870], the pEC50 was 8.14 in assay [7]; 7.15 in assay [2]; 10.16 in assay [3]; 9.02 in assay [4]; 6.13 in assay [5]; 8.36 in assay [6].
Take “H-Y[Aib]QGT[αMePhe(2-F)]TSD[4Pal]SILLDKQAQK([AEEA-AEEA-γGlu-C20 diacid])AFIEYLLEGGPSSGEPPPSEG-NH2 [Example 347]”: the pEC50 was 7.76 in assay [7]; 6.60 in assay [2]; 10.20 in assay [3]; 9.10 in assay [4]; 5.44 in assay [5]; 8.05 in assay [6].
As to `CC[C@H](C)[C@H](NC(=O)[C@H](Cc1ccccc1)NC(=O)[C@H](CCCN)NC(=O)C(C)(C)NC(=O)[C@H](CCC(N)=O)NC(=O)[C@H](C)NC(=O)[C@H](CCCCNC(=O)COCCOCCNC(=O)CC[C@H](NC(=O)CCCCCCCCCCCCCCCCC(=O)O)C(=O)O)NC(=O)[C@H](CCCN)NC(=O)[C@H](CC(=O)O)NC(=O)[C@H](CC(C)C)NC(=O)[C@H](CC(C)C)NC(=O)[C@H](CO)NC(=O)[C@](C)(CO)NC(=O)[C@H](Cc1ccc(O)cc1)NC(=O)[C@H](CC(=O)O)NC(=O)[C@H](CO)NC(=O)[C@@H](NC(=O)[C@](C)(Cc1ccccc1)NC(=O)[C@@H](NC(=O)CNC(=O)[C@H](CCC(N)=O)NC(=O)C(C)(C)NC(=O)[C@@H](N)Cc1ccc(O)cc1)[C@@H](C)O)[C@@H](C)O)C(=O)N[C@H](CCC(=O)O)C(=O)N[C@@](C)(Cc1ccc(O)cc1)C(=O)N[C@@H](CC(C)C)C(=O)N[C@@H](CC(C)C)C(=O)N[C@@H](CCC(=O)O)C(=O)NCC(=O)NCC(=O)N1CCC[C@H]1C(=O)N[C@@H](CO)C(=O)N[C@@H](CO)C(=O)NCC(=O)N[C@@H](CCC(=O)O)C(=O)N1CCC[C@H]1C(=O)N1CCC[C@H]1C(=O)N1CCC[C@H]1C(=O)N[C@@H](CCC(=O)O)C(N)=O` [Example 390] (H-Y[Aib]QGT[αMeF]TSDY[αMeS]SLLD[Orn]K([AEEA-γGlu-C18 diacid])AQ[Aib][Orn]FI[dE][αMeY]LLEGGPSSGEPPPE-NH2), the pEC50 in assay [7] was 7.42; in assay [2] it was 7.71; in assay [3], 9.91; in assay [4], 9.87; in assay [5], 6.26; in assay [6], 8.51.
Take “H-Y[Aib]QGTFTSD[4Pal]SK[αMeL]LDKK([γGlu-γGlu-C18 diacid])AQ[Aib]AFIEYLIE[Aib]GPSSGAPPPSGSEE-NH2 [Example 905]”: the pEC50 is 7.98 in assay [7]; 6.67 in assay [2]; 9.66 in assay [3]; 8.60 in assay [4]; 5.86 in assay [5]; 7.91 in assay [6].
